Laboratory results published in patent US20120231025A1 (priority 2009, published 2012).
“Also recorded” adds a separate entry of the source. Where two headings read alike, the source gives them in different places.

Columns and labels:
[1] = tested on: bone marrow cells; conditions: bone marrow cells irradiated with 1 Gy, injected into lethally irradiated recipients (8 Gy); peptide 10 ug per kg intraperitoneally 15-30 minutes after the cells; cited from earlier work
[2] = tested on: allogeneic lymphocytes; conditions: H-2d anti H-2b, cited from earlier work
[3] = tested on: hematopoietic cells; conditions: cited from earlier work
[4] = tested on: T-cells in spleen; conditions: peptide 10 μg/kg, cited from earlier work
[5] = tested on: peripheral blood mononuclear cells (PBMC); test: MIMIC peripheral tissue equivalent (PTE) assay; type: cell-based, human
[6] = tested on: influenza antigen; type: in vivo, Balb/c mice
[7] = tested on: spleen and thymus; conditions: mice irradiated 2 Gy, peptide 10 μg/kg, cited from earlier work
[8] = tested on: influenza of the H1N2, H3N2, and B strains; parameters: species or system Balb/c mice; conditions: mouse, in vivo
[9] = tested on: antibody forming cells; conditions: cited from earlier work

For iGlu-Trp-OH, the “Number of CFU-S” value [1] is given as 10.1 ± 0.5.

In the case of Val-Glu-Trp-OH, the “Number of CFU-S” value [1] is given as 8.2 ± 0.3.

For Pyro-Glu-Trp-OH, the “Number of CFU-S” value [1] is listed as 9.3 ± 0.4.

In the case of Glu-Trp-OH, the “Number of CFU-S” value [1] is listed as 10.5 ± 0.3.

In the case of Leu-Glu-Trp-OH, the “Number of CFU-S” value [1] is listed as 6.5 ± 0.5.

For Ile-Glu-(Trp)-OH, the “Number of CFU-S” value [1] is given as 8.5 ± 0.5.

In the case of Lys-Glu-(Trp)-OH, the “Number of CFU-S” value [1] is given as 5.9 ± 0.5.

For Tyr-Glu-Trp-OH, the “Number of CFU-S” value [1] is given as 7.3 ± 0.4.

For H-L-Ile-L-Glu-L-Trp-OH [Neogen], the “Proliferation of allogeneic lymphocytes in MLC” value ([2]; peptide 0.1 μg/mL) is listed as “negligible inhibition of the proliferation”, the “Proliferation of allogeneic lymphocytes in MLC” value ([2]; peptide 1, 10, and 20 μg/mL) is listed as “stimulated proliferation of the allogeneic lymphocytes” and the Hemoglobin levels ([3]; animals first irradiated and then treated, U.S. Pat. No. 6,159,950, Example 8) is listed as “more rapidly restored hemoglobin levels”. For the same substance, the “Antibody forming cells (AFC) after challenge with sheep erythrocytes” value ([3]; irradiated mice, U.S. Pat. No. 6,159,950, Example 4) was “making antibody forming cells (AFC) against the challenge”, the “Number of CFU-S” value [1] was 11.5 ± 0.3 and the T-cell count ([4]; intact mice, 3 or 4 times) was “being the same as it was”. The “T-cell count in spleen” value ([4]; mice irradiated 2 Gy, 1 to 4 injections, especially three or four) was “grew in all mice who received the peptide injections”, the “Cell-surface expression of HLA-DR on dendritic cells” value [5] was “primed for antigen presentation” and the “Dendritic cells migrating (reverse transmigrating) across the HUVEC layer” value ([5]; Neogen alone, preliminary) was “fewer dendritic cells migrating across the HUVEC layer; also recorded: reduced the number of cells found to reverse transmigrate”. The “Number of dendritic cells recovered” value ([5]; Neogen alone, preliminary) was “did not”, the “Number of dendritic cells recovered” value ([5]; Neogen in the presence of antigen, preliminary) was “increased the number of dendritic cells recovered from the system” and the “Dendritic cells migrating (reverse transmigrating) across the HUVEC layer” value ([5]; Neogen plus antigen, preliminary) was “fewer dendritic cells migrating across the HUVEC layer; also recorded: reduced the number of cells found to reverse transmigrate”. The “Differentiation of donor PBMCs into macrophages and dendritic cells” value ([5]; as little as 1 ug/mL of Neogen in the presence of antigen, preliminary) was “enhanced the ability of donor PBMCs to differentiate into macrophages and dendritic cells”, the “IgG1 levels (area-under-the-curve analysis)” value ([6]; low-dose Neogen with Vaxigrip compared with Vaxigrip alone) was “statistically significant increase in IgG1 levels” and the IgG1 response ([6]; mouse, in vivo) was “progressively lower IgG1 responses”. The IgG2a response ([6]; mouse, in vivo) was “higher IgG2a responses”, the “Karyocyte count in thymus” value ([7]; 3 and 4 injections) was “a certain growth of the karyocyte count in thymus” and the “Karyocyte count in spleen per mg of organ weight” value ([7]; one and four injections) was “increase in the karyocyte count in spleen”. The HI titer [8] was “higher response than any of the other groups; also recorded: higher HI response”, the HI titer ([8]; sc) was “no HI titer” and the “AFC increase, humoral response to SE” value ([9]; intact mice, peptide 10 μg/kg intramuscularly, 3 or 4 times) was 5 times. The “Number of antibody forming cells” value ([9]; mice irradiated 2 Gy, peptide 10 μg/kg, 3 and 4 injections) was “practically doubled”.

For Ile-Glu-Trp-NH2, the “Number of CFU-S” value [1] is given as 7.9 ± 0.4.

In the case of Lys-Glu-(Trp-NH2)-OH, the “Number of CFU-S” value [1] is given as 5.9 ± 0.4.

In the case of Ala-Glu-Trp-OH, the “Number of CFU-S” value [1] is given as 8.7 ± 0.4.

For Lys-Glu-Trp-OH, the “Number of CFU-S” value [1] is listed as 6.2 ± 0.4.

In the case of Phe-Glu-Trp-OH, the “Number of CFU-S” value [1] is given as 6.6 ± 0.3.
